Reference: patent US20250090529A1, “USE OF SHP2 INHIBITORS FOR THE TREATMENT OF INSULIN RESISTANCE” (INSERM (INSTITUT NATIONAL DE LA SANTÉ ET DE LA RECHERCHE …, priority 2018, published 2025)

Assays:
[1] = Garcia Fortanet et al., J Med Chem 2016; cited from earlier work
[2] = test system: renal fibrosis induced by carbon tetrachloride; settings: Kostallari et al., 2018; cited from earlier work
Obese diabetic mice = assay: OGTT in obese diabetic mice after chronic SHP2 inhibition; settings: gavage 50 mg/kg/day
Description: Obese diabetic mice were treated by gavage (50 mg/kg/day). After 15 days of treatment an OGTT was performed (FIG. 1).

[3] = after 15 days of treatment, compared to control

Question: What does the source list for `CC1(N)CCN(c2cnc(-c3cccc(Cl)c3Cl)c(N)n2)CC1` [SHP099, 6-(4-amino-4-methylpiperidin-1-yl)-3-(2,3-dichlorophenyl)pyrazin-2-amine]?
Answer: oral bioavailability [1]: good; tolerance [1]: good tolerance; effectiveness in treatment of renal fibrosis [2]: effectiveness in treatment of renal fibrosis; body composition (Obese diabetic mice; 15 days of treatment): without any change; weight (Obese diabetic mice; 15 days of treatment): without any change; fasting blood glucose (Obese diabetic mice; [3]): decreased fasting blood glucose; glucose tolerance (OGTT) (Obese diabetic mice; [3]): significant improvement in the glucose tolerance
